`Cc1[nH]c2ccc(OC(C)C(C)N3CCCC3)cc2c1C(=O)OCc1ccccc1` (stereo unspecified) returned a melting point of 94 to 98 °C. Compound `CCCOC(=O)c1ccc(OC(=O)CCCC(=O)Oc2ccc(C(=O)OCCC)cc2)cc1` registered a melting point of 74 to 75 °C. The result for `O=[N+]([O-])c1ccc(OCCCO)cc1CS(=O)(=O)c1cccc2ccccc12` reads 134 to 135 °C; that for `Cc1nc(N)nc(N)c1-c1cc(Cl)cc(Cl)c1Cl`, 236 to 238 °C. For `COc1cc2c(cc1Nc1ncc(Cl)c(Nc3ccc(N(C)C)cc3OC)n1)CCN(CCN1CCOCC1)CC2` the value was 115 °C; for `CCCCCc1ccc(-c2ncc(C#N)c(Cl)n2)cc1`, 96 to 96.3 °C. The result for `CC(C)CCCC(C)C1CCC2C3C(=O)C=C4CC(O)CCC4(C)C3CCC12C` (stereo unspecified) reads 169 to 170 °C; that for `COCOc1cccc2c(Br)cccc12`, 49 to 50 °C. Regarding `CCCc1cn(CC(=O)O)nc1OCCCc1cn(-c2ccc(C(F)(F)F)cn2)nc1CCC`, the melting point fell in the range of 138 to 139 °C. For the compound `CC(C)=CCC/C(C)=C/COc1c(I)c(C)c(I)c(C)c1I`, the melting point lay in the range of 65 to 66 °C. `CCOC(=O)C(C)=NNc1ccc(C(O)(C(F)(F)F)C(F)(F)F)cc1` returned a melting point of 167 to 168 °C. Compound `CC(=O)c1c[nH]cc1-c1cccc(Cl)c1Cl` returned a melting point of 192 to 194 °C. For `O=C(CCCCSc1nc(-c2ccccc2)c(-c2ccccc2)[nH]1)NCCOCCO`, the melting point was in the range of 176 to 178 °C. For `Cc1cc(Oc2cccc(C(F)(F)F)c2)nc(C(=O)O)c1` the value was 75 to 77 °C; for `COC(=O)CCC(NC(=O)Nc1cccc(C)c1)C(=O)O` (racemic), 127 °C; for `COCCOc1ncnc2[nH]ccc12`, 137 to 139 °C. Compound `CC(=O)Oc1cc(-c2ccccc2)ccc1C1(OC(C)=O)C(=O)c2ccccc2C1=O` yielded a melting point of 165 to 167 °C.

On to `CN(C)C(=O)C1CC2CCC1c1[nH]c3ccccc3c12` (stereo unspecified), for which the melting point lay in the range of 231 to 232 °C. For `CCc1nc2c(o1)C(=O)C(Cl)=C(Nc1ccccc1)C2=O` the value was 159 °C; for `N/C(=C1/Sc2ccccc2C1=O)c1ccccc1Br`, 143 to 144 °C. For `CCOC(=O)Nc1ccc2c(c1)c(N)nn2C(=O)OCC` the value was 173 to 174 °C. `COc1ccc(Cn2nc(-c3cccc(Cl)c3)c3ncccc3c2=O)cn1` displayed a melting point of 145 °C.

Regarding `Cc1c(-c2ccc(-c3ccccc3F)cc2)nc2ccc(F)cc2c1C(=O)O`, the melting point lay in the range of 315 to 317 °C. For `CC(C)NCC(O)COc1ccc(CCOCC2CCC2)cc1` (stereo unspecified) the value was 62 to 63 °C. In turn, `COC(=O)c1cn2c(C(F)(F)F)nnc2c2ccccc12` gave a melting point of 170 °C. For `CCOC(=O)C(=O)Nc1sc(C(=O)OCC)c(C)c1[N+](=O)[O-]` the value was 118 to 120 °C; for `CC(N=C(NN)NN)C(=O)O` (stereo unspecified), 175 to 177 °C; for `CC(=O)N1c2ccccc2-n2cc(Cc3cccnc3)c(=O)c3cccc1c32`, 143 to 144 °C. In turn, `CCc1sc2nc(C(=O)OC)cn2c1C` came in with a melting point of 94 to 95 °C. Compound `COc1ccc(S(=O)(=O)Nc2nc(-c3cccc4ccccc34)cs2)cc1` displayed a melting point of 98 to 100 °C. For `CCOCc1nc2c(N)nc3cc(-c4ccsc4)ccc3c2n1CC(C)(C)O` the value was 204 to 205 °C; for `O=C(O)c1cc(SCc2ccccc2)c(-c2ccccc2)c([N+](=O)[O-])c1`, 188 to 189 °C; for `OC1(C#Cc2ccc(Br)cn2)CN2CCC1CC2` (stereo unspecified), 194 to 198 °C. `CN1c2cccc3cccc(c23)N(C)C1(C)C`: the melting point lay in the range of 53 to 57 °C. In turn, `CCCNC(=O)c1cnc2cc(C)ccn2c1=O` returned a melting point of 194 to 196 °C. Consider `CC1=C(c2ccccc2)C(=O)N(C(C)(C)c2cc(Cl)c(F)c(Cl)c2)C1`, for which the melting point was 164 to 167 °C. In the case of `c1ccc2c(c1)CCn1ccnc1C2=C1CCN(CCn2cccc2)CC1`, the melting point was 166 °C.

Compound `Cc1nc2cc(C(c3cccc(Cl)c3)n3ccnc3)ccc2[nH]1` (stereo unspecified) yielded a melting point of 117 °C. As for `COc1cc(C(=O)O)ccc1Cn1cc(/C=C/C(=O)N(C)C)c2ccc(/C=C/C(=O)N(C)C)cc21`, the melting point was 270 to 272 °C. `CC(C)=C1CCC2(C1)C(=O)C=C(OC(C)C)CC2C` (stereo unspecified) showed a melting point of 77 to 77.5 °C. For `O=[N+]([O-])c1ccc2c(c1)S(=O)(=O)NCN2C1CC1` the value was 198 to 201 °C; for `Cc1c(C)c2c(c(C)c1NCc1ccccc1)C(=O)C(C)(C)O2`, 98 to 99 °C; for `O=C(O)C(=O)NC1CCCCCCC1`, 115 to 116 °C. For `CC(C)(C)c1nc(C=O)c[nH]1` the value was 194 to 195 °C. For `CCOC(=O)c1c(C)nc(-c2ccccc2)nc1-c1cc([N+](=O)[O-])ccc1S(C)=O` (stereo unspecified) the value was 130 to 132 °C; for `N#Cc1cc2c(c(C(=O)O)c1)NCCC2`, 238 °C. Take `N#Cc1c(-c2cccc(N)c2)cc(-c2ccccc2O)nc1NC(=O)c1ccccc1`: the melting point lay in the range of 259 to 261 °C. For `CCCN(CCCc1c[nH]c2ccc(OC)cc12)C1COc2c(F)ccc(C(N)=O)c2C1` (stereo unspecified), the melting point is 145 to 152 °C.

Take `CCCCn1c(=O)n(OCc2ccccc2)c(=O)c2cc(F)c(Cl)nc21`: the melting point lay in the range of 147 to 148 °C. For `CNC(=O)c1cccc(NC(=O)CCc2ccc(OC)cc2)c1` the value was 151 to 152 °C; for `O=C(Nc1cccc(C(F)(F)F)c1F)c1cccnc1NCc1ccc(=O)[nH]c1`, 219 to 222 °C; for `O=[N+]([O-])c1ccc2c(Nc3ccncc3)noc2c1`, 296 to 300 °C. `CCN(C(=O)N1CCN(c2cc(C)cc(C)c2)CC1)c1nc2ccccc2nc1OC` yielded a melting point of 145 to 147 °C. For `CCCc1cc(-c2ccccc2)ccc1C(=O)O` the value was 108 °C; for `COc1ccc(Cc2n[nH]c3c2c(=O)n(-c2ccccc2)c2ncccc32)cc1`, 300 to 302 °C; for `COc1ccccc1N(CCN1CCC(C(=O)c2ccc(F)cc2)CC1)S(=O)(=O)C1=CCC(=NO)C=C1`, 162 to 168 °C. For `COc1ccc2cc(-c3noc4cc(OC)ccc34)ccc2c1` the value was 141 to 143 °C; for `CC(=O)Oc1ccccc1C(=O)NC(O)C(Cl)(Cl)Cl` (stereo unspecified), 124 to 126 °C. For `COC(=O)C1c2ccccc2C(=O)N(CC(F)(F)F)C1c1cn[nH]c1` (stereo unspecified) the value was 161 to 162 °C. For the compound `OCCCN1CC=C(c2cn(-c3ccc(F)cc3)c3ccc(C(F)(F)F)cc23)CC1`, the melting point is 173 to 175 °C.

Compound `O=C(NCCO)c1ccc(NS(=O)(=O)c2ccc(F)cc2)cn1` displayed a melting point of 144 to 146 °C. The result for `CCC(=O)N(Cc1ccc(OC)cc1)c1cc(F)cc(-c2nnn[nH]2)c1` reads 158 to 160 °C; that for `O=C(OCN1C(=O)C2CCCN2S1(=O)=O)c1c(Cl)cccc1Cl` (stereo unspecified), 92 to 93.5 °C; that for `CNc1cc2c(cc1[N+](=O)[O-])OCO2`, 170 °C. The result for `COc1cc(-c2nc(C)no2)cc([N+](=O)[O-])c1OC` reads 111 °C; that for `CC1CCN(c2cc(C(C)(C)C)no2)C1=O` (stereo unspecified), 73 to 75 °C. `O=C1CSC=C(c2ccccc2)N1` yielded a melting point of 150 to 155 °C. For `COc1cn(-c2cccc3c2OC(F)(F)O3)nc(-c2ccnn2-c2ccccc2)c1=O` the value was 181 to 183 °C. The result for `COc1cccc2c1CCC[C@H]2NC(=O)c1cccc(Cl)c1O` reads 175 to 176 °C; that for `COc1ccc(C(=C2CCCCC2)c2ccc(OC)c(OC)c2)cc1OC`, 107 °C; that for `CCN(CC)C(=O)Nc1cc(C(C)(C)C)on1`, 122 to 124 °C. For `O=C(O)CCCCCc1ccc(O)c(O)c1` the value was 109 °C; for `Oc1cccc(-c2ccc3cc(O)ccc3c2)c1`, 192 to 194 °C; for `Cn1nnc(Cc2ccc3c(c2)c(C2=CCN(CCN4CCNC4=O)CC2)cn3-c2ccc(F)cc2)n1`, 129 to 131 °C. For `CC1(C(O)C(Cc2ccc(Cl)cc2)n2cncn2)COCOC1` (stereo unspecified), the melting point lay within 152 to 154 °C.

For `Cc1nc(CC(=O)O)no1`, the melting point was in the range of 101 to 103 °C. In the case of `O=C(O)c1ccc(-c2ccc(Cl)cc2)nc1`, the melting point is greater than 260 °C. The result for `O=C(c1cccc(F)c1)N1CCC2(CCn3c(nc(-c4ccncn4)cc3=O)N2)C1` (stereo unspecified) reads 296 to 298 °C. Compound `CC(C)CCN1C(=O)C(NC(=O)n2ccnc2)C(=O)N(c2ccccc2)c2ccccc21` (stereo unspecified) displayed a melting point of 62 to 65 °C. `O=C1c2ccccc2Cc2c1ccc(Cl)c2O` returned a melting point of 186 to 188 °C. For `CCc1cccc(-c2[nH]c(C(C)C)nc2-c2cccc(-c3ccc(S(C)(=O)=O)cc3)c2)n1` the value was 108 to 110 °C; for `Cc1oc(-c2ccccc2)nc1COc1ccc(CON=C(CCCCCCC(=O)O)c2ccc(F)cc2)cc1`, 56 to 57 °C; for `Cn1c(=O)c2[nH]c(C3CCSC3)nc2n(C)c1=O` (stereo unspecified), 217 to 219 °C. In turn, `CCCCC(=O)OC1(C(=O)CCl)CCC2C3CC(C)C4CC(=O)CCC4(C)C3(F)C(=O)CC21C` (stereo unspecified) came in with a melting point of 67 to 72 °C. For `O=C(NC1(C(=O)O)CCOCC1)OCc1ccccc1` the value was 110 to 115 °C; for `CCN(CC)CC1CCCCN1CCNC(=O)N1c2ccccc2C(=O)Nc2cccnc21` (stereo unspecified), 175 to 176 °C.

As to `CCOC(=O)CCC(=NOCc1ccc(OCc2nc(-c3ccccc3)oc2C)cc1)c1ccc(Oc2ccccc2)cc1`, the melting point lay within 118 to 119 °C. For `Nc1ccc(S(=O)(=O)Nc2nnc(CC(=O)O)s2)cc1`, the melting point was in the range of 209 to 210 °C. For `CN(c1cc(OC(F)(F)F)cc2cc(C(N)=O)[nH]c12)S(=O)(=O)c1cccs1` the value was 228 to 229 °C. The result for `Cn1nc(-c2cc(CO)c(Cl)cc2F)c(Cl)c1C(F)(F)F` reads 90 °C; that for `COc1ccc(-c2coc3ccc(C(=O)NNC(C)=O)cc23)cc1`, 219 to 220 °C.

The term melting point denotes the temperature, or range, at which the solid turns liquid.

These data come from a melting point compilation (Tetko et al.; mined from patent text by program, amines drawn as free bases though some values may be those of a salt).
